Measurements from patent publication US9273057B2 (Bristol-Myers Squibb Company, priority 2012, dated 2016).
Where a name gives a salt, the structure may show the parent alone.

Biological target: CK2A1 (CK2α/β) (Homo sapiens, UniProt P68400)
Experiment: CK2 kinase assay, CK2A1 (CK2α/β)
Type: biochemical
Conditions: Table A; read-out: CK2A1 (CK2α/β) (IC50)
Method: For example, in vitro protein kinase assays may be conducted with a relevant purified protein kinase and an appropriate synthetic substrate to determine the inhibitory activity of the compounds. […] Reaction mixtures were incubated at 30° C. for 1 hour, and reaction products were captured by binding to phosphocellulose (P81) filter plates. Incorporation of radioactive phosphate into the peptide substrate was determined by liquid scintillation counting.
The inhibitory activity of the instant compounds may also be measured by recombinant CK2 holoenzyme kinase assays. The assays were performed in U-bottom 384-well plates. […] The reaction was initiated by the combination of bacterially expressed, CK2 α/β or CK2 holoenzyme with substrates and test compounds. The reaction was incubated at room temperature for 60 minutes and terminated by adding 30 μl of 35 mM EDTA to each sample. The reaction mixture was analyzed on the Caliper LABCHIP® 3000 (Caliper, Hopkinton, Mass.) by electrophoretic separation of the fluorescent substrate and phosphorylated product. […] Compounds were dissolved at 10 mM in dimethylsulfoxide (DMSO) and evaluated at eleven concentrations. IC50 values were derived by non-linear regression analysis.

Chain of CK2A1 (CK2α/β) (P68400 whole entry, species assumed): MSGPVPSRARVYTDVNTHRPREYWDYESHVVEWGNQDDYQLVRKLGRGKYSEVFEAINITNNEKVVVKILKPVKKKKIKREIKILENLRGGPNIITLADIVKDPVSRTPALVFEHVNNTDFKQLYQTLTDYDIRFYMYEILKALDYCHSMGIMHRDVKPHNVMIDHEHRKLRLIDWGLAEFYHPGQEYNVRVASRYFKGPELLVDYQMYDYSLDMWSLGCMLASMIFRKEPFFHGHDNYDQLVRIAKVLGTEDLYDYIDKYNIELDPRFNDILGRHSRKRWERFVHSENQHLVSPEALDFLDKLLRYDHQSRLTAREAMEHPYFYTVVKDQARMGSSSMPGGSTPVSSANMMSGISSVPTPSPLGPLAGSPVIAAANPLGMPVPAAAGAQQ
Chain of CK2A1 (CK2α/β) (P67870 whole entry partner, species assumed): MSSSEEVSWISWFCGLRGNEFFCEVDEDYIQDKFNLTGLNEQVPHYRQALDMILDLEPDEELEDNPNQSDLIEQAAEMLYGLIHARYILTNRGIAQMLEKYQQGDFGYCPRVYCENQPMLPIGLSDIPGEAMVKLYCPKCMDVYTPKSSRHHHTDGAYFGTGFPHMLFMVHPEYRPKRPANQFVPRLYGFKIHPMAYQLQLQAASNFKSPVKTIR

| Compound | IC50 |
| --- | --- |
| CC1(N2CCN(c3cc(OC(F)F)cc(Nc4nc(NC5CC5)c5ncc(C#N)n5n4)c3Cl)CC2)COC1 [Example 561, 2-((2-chloro-5-(difluoromethoxy)-3-(4-(3-methyloxetan-3-yl)piperazin-1-yl)phenyl)amino)-4-(cyclopropylamino)imidazo[2,1-f][1,2,4]triazine-7-carbonitrile] | 2080 pM |
| COC(=O)Nc1cc(Nc2nc(NC3CC3)c3ncc(C#N)n3n2)c(Cl)c(N2CC[C@@H](NC(=O)OC)[C@@H](F)C2)c1 (racemic) [Example 202, (+/−) methyl (4-chloro-3-((7-cyano-4-(cyclopropylamino)imidazo[2,1-f][1,2,4]triazin-2-yl)amino)-5-((3S,4R)-3-fluoro-4-((methoxycarbonyl)amino)-1-piperidinyl)phenyl)carbamate] | 830 pM |
| CN(C)C(=O)C1CN(c2cc(C#N)cc(Nc3nc(NC4CC4)c4ncc(C#N)n4n3)c2Cl)CCN1CC(C)(C)O (stereo not drawn) [Example 317, 4-(2-chloro-5-cyano-3-((7-cyano-4-(cyclopropylamino)imidazo [2,1-f][1,2,4]triazin-2-yl)amino)phenyl)-1-(2-hydroxy-2-methylpropyl)-N,N-dimethylpiperazine-2-carboxamide] | 990 pM |
| CN1CCN(C2CN(c3cc(C#N)cc(Nc4nc(NC5CC5)c5ncc(C#N)n5n4)c3Cl)C2)CC1 [Example 151, 2-((2-chloro-5-cyano-3-(3-(4-methylpiperazin-1-yl)azetidin-1-yl)phenyl)amino)-4-(cyclopropylamino)imidazo[2,1-f][1,2,4]triazine-7-carbonitrile] | 590 pM |
| N#Cc1cc(Nc2nc(NC3CC3)c3ncc(C#N)n3n2)c(Cl)c(N2CCN(C(=O)C3CNC(=O)N3)CC2)c1 (racemic) [Example 81, (+/−)2-((2-chloro-5-cyano-3-(4-((2-oxo-4-imidazolidinyl)carbonyl)-1-piperazinyl)phenyl)amino)-4-(cyclopropylamino) imidazo[2,1-f][1,2,4] triazine-7-carbonitrile] | 1800 pM |
| COCC(C)N1CCN(c2cc(C#N)cc(Nc3nc(NC4CC4)c4ncc(C#N)n4n3)c2Cl)CC1 (racemic) [Example 64, (+/−) 2-((2-chloro-5-cyano-3-(4-(2-methoxy-1-methylethyl)-1-piperazinyl)phenyl)amino)-4-(cyclopropylamino) imidazo[2,1-f][1,2,4] triazine-7-carbonilrile] | 710 pM |
| N#Cc1cc(Nc2nc(NC3CC3)c3ncc(C#N)n3n2)c(Cl)c(N2CCN(C(=O)CCO)CC2)c1 [Example 90, 2-(2-chloro-5-cyano-3-(4-(3-hydroxypropanoyl)piperazin-1-yl)phenylamino)-4-(cyclopropylamino) imidazo[1,2-f][1,2,4] triazine-7-carbonitrile] | 530 pM |
| CN1CCC2(CC1)CCN(c1cc(C#N)cc(Nc3nc(NC4CC4)c4ncc(C#N)n4n3)c1Cl)C2 (racemic) [Example 26, (+/−) 2-((2-chloro-5-cyano-3-(8-methyl-2,8-diazaspiro[4.5]dec-2-yl)phenyl)amino)-4-(cyclopropylamino)imidazo [2,1-f][1,2,4]triazine-7-carbonitrile] | 1030 pM |
| CN1CCN(c2cc(Cl)c(Nc3nc(NC4CC4)c4ncc(C#N)n4n3)cc2C#N)CC1 [Example 432, 2-((2-chloro-5-cyano-4-(4-methyl-1-piperazinyl)phenyl)amino)-4-(cyclopropylamino)imidazo[2,1-f][1,2,4]triazine-7-carbonitrile] | 2900 pM |
| N#Cc1cc(NCCCO)c(Cl)c(Nc2nc(NC3CC3)c3ncc(C#N)n3n2)c1 [Example 617, 2-((2-chloro-5-cyano-3-((3-hydroxypropyl)amino)phenyl)amino)-4-(cyclopropylamino)imidazo[2,1-f][1,2,4]triazine-7-carbonitrile] | 340 pM |
| C[C@@H]1CN(c2cc(C#N)cc(Nc3nc(NC4CC4)c4ncc(C#N)n4n3)c2Cl)C[C@H](C)N1C [Example 24, (+/−) 2-((2-chloro-5-cyano-3-((3R,5S)-3,4,5-trimethyl-1-piperazinyl)phenyl)amino)-4-(cyclopropylamino)imidazo [2,1-f][1,2,4]triazine-7-carbonitrile] | 1000 pM |
| COC(=O)N[C@H]1CCN(c2cc(C#N)cc(Nc3nc(NC4CC4)c4ncc(C#N)n4n3)c2Cl)C[C@@H]1N(C)CC(C)(C)O [Example 765, methyl N-[(3S,4S)-1-(2-chloro-5-cyano-3-{[7-cyano-4-(cyclopropylamino)imidazo [2,1-f][1,2,4]triazin-2-yl]amino}phenyl)-3-[(2-hydroxy-2-methylpropyl)(methyl)amino]piperidin-4-yl] carbamate] | 23200 pM |
| N#Cc1cc(Nc2nc(NC3CC3)c3ncc(C#N)n3n2)c(Cl)c(N2CCC(N3CC(F)(F)C3)CC2)c1 [Example 147, 2-((2-chloro-5-cyano-3-(4-(3,3-difluoro-1-azetidinyl)-1-piperidinyl)phenyl)amino)-4-(cyclopropylamino)imidazo [2,1-f][1,2,4]triazine-7-carbonitrile] | 1170 pM |
| N#Cc1cc(CNCC2CC2)c(Cl)c(Nc2nc(NC3CC3)c3ncc(C#N)n3n2)c1 [Example 470] | 1500 pM |
| CO[C@H](C)C(=O)N1CC(N2CCN(c3cc(C#N)cc(Nc4nc(NC5CC5)c5ncc(C#N)n5n4)c3Cl)CC2)C1 [Example 513, 2-{[2-chloro-5-cyano-3-(4-{1-[(2R)-2-methoxypropanoyl]azetidin-3-yl}piperazin-1-yl)phenyl]amino}-4-(cyclopropylamino)imidazo[2,1-f][1,2,4]triazine-7-carbonitrile] | 3080 pM |
| CN1CC2CC1CN2c1cc(C#N)cc(Nc2nc(NCC(F)(F)F)c3ncc(C#N)n3n2)c1Cl (racemic) [Example 430, (+/−)-2-((2-chloro-5-cyano-3-((1R,4R)-5-methyl-2,5-diazabicyclo[2.2.1]heptan-2-yl)phenyl)amino)-4-((2,2,2-trifluoroethyl)amino)imidazo[2,1-f][1,2,4]triazine-7-carbonitrile] | 970 pM |
| CC(C)(C)NCc1cc(C#N)cc(Nc2nc(NC3CC3)c3ncc(C#N)n3n2)c1Cl [Example 468, 2-({3-[(tert-butylamino)methyl]-2-chloro-5-cyanophenyl}amino)-4-(cyclopropylamino)imidazo[2,1-f][1,2,4]triazine-7-carbonitrile] | 300 pM |
| N#Cc1cc(Nc2nc(NC3CC3)c3ncc(C#N)n3n2)c(F)c(C2CCN(C3COC3)CC2)c1 [Example 384, 2-((5-cyano-2-fluoro-3-(1-(oxetan-3-yl)piperidin-4-yl)phenyl)amino)-4-(cyclopropylamino)imidazo[2,1-f][1,2,4]triazine-7-carbonitrile] | 430 pM |
| COC(=O)N[C@H]1CN(c2cc(C#N)cc(Nc3nc(NC4CC4)c4ncc(C#N)n4n3)c2Cl)C[C@H]1OC [Example 14, methyl ((3S,4R)-1-(2-chloro-5-cyano-3-((7-cyano-4-(cyclopropylamino)imidazo [2,1-f][1,2,4]triazin-2-yl)amino)phenyl)-4-methoxy-3-pyrrolidinyl)carbamate] | 700 pM |
| CCNc1nc(Nc2cc(C#N)cc(N3CC[C@@H](NC(=O)OC)[C@H](OC(=O)[C@@H](N)Cc4cnc[nH]4)C3)c2Cl)nn2c(C#N)cnc12 [Example 809, (S)-(3R,4R)-1-(2-chloro-5-cyano-3-((7-cyano-4-(ethylamino)imidazo[2,1-f][1,2,4]triazin-2-yl)amino)phenyl)-4-((methoxycarbonyl)amino)piperidin-3-yl 2-amino-3-(1H-imidazol-5-yl)propanoate dihydrochloride] | 1000 pM |
| CC(=O)N1CC(N2CCN(c3cc(C(F)F)cc(Nc4nc(NC5CC5)c5ncc(C#N)n5n4)c3Cl)CC2)C1 [Example 266, 2-((3-(4-(1-acetyl-3-azetidinyl)-1-piperazinyl)-2-chloro-5-(difluoromethyl)phenyl)amino)-4-(cyclopropylamino)imidazo[2,1-f][1,2,4]triazine-7-carbonitrile] | 2970 pM |
| N#Cc1cc(Nc2nc(NC3CC3)c3ncc(C#N)n3n2)c(Cl)c(N2CC(N3CCC(O)C3)C2)c1 (racemic) [Example 159, (+/−) 2-((2-chloro-5-cyano-3-(3-(3-hydroxy-1-pyrrolidinyl)-1-azetidinyl)phenyl)amino)-4-(cyclopropylamino)imidazo [2,1-f][1,2,4]triazine-7-carbonitrile] | 480 pM |
| CC(O)CN1CCC2CCN(c3cc(C#N)cc(Nc4nc(NC5CC5)c5ncc(C#N)n5n4)c3Cl)CC21 (racemic) [Example 460, (+/−)-2-((2-chloro-5-cyano-3-(1-(2-hydroxypropyl)hexahydro-1H-pyrrolo[2,3-c]pyridin-6(2H)-yl)phenyl)amino)-4-(cyclopropylamino)imidazo[2,1-f][1,2,4]triazine-7-carbonitrile] | 1620 pM |
| CC[C@H]1CN(c2cc(C#N)cc(Nc3nc(NC4CC4)c4ncc(C#N)n4n3)c2Cl)CC[C@H]1NC(=O)OC (racemic) [Example 296, (+/−) methyl ((3S,4R)-1-(2-chloro-5-cyano-3-((7-cyano-4-(cyclopropylamino)imidazo[2,1-f][1,2,4]triazin-2-yl)amino)phenyl)-3-ethyl-4-piperidinyl)carbamate] | 940 pM |
| CC1(N2CCOCC2)CCN(c2cc(C#N)cc(Nc3nc(NC4CC4)c4ncc(C#N)n4n3)c2Cl)CC1 [Example 304, 2-((2-chloro-5-cyano-3-(4-methyl-4-morpholinopiperidin-1-yl)phenyl)amino)-4-(cyclopropylamino)imidazo[2,1-f][1,2,4]triazine-7-carbonitrile, HCl] | 800 pM |
| CS(=O)(=O)N1CCN(Cc2cc(C#N)cc(Nc3nc(NC4CC4)c4ncc(C#N)n4n3)c2Cl)CC1 [Example 401, 2-((2-chloro-5-cyano-3-((4-(methylsulfonyl)piperazin-1-yl)methyl)phenyl)amino)-4-(cyclopropylamino)imidazo[2,1-f][1,2,4]triazine-7-carbonitrile] | 380 pM |
| N#Cc1cc(Nc2nc(NC3CC3)c3ncc(C#N)n3n2)c(Cl)c(N2CCN(C3(C#N)COC3)CC2)c1 [Example 104, 2-((2-chloro-5-cyano-3-(4-(3-cyano-3-oxetanyl)-1-piperazinyl)phenyl)amino)-4-(cyclopropylamino) imidazo[2,1-f][1,2,4] triazine-7-carbonitrile] | 700 pM |
